In PMC10706425, “Enhancing the Antimicrobial Properties of Peptides through Cell-Penetrating Peptide Conjugation: A Comprehensive Assessment” (International Journal of Molecular Sciences, 2023):

Experiments:
[1] = tested on: S. aureus (209P strain); test: Antibacterial activity in liquid medium; format: cell-based, Staphylococcus aureus; settings: for Peptide Activity in Liquid Medium after 15 h of Incubation (Gentamicin as Positive Control): 209P strain, Mueller–Hinton broth, 37 °C, 2% DMSO
Description: (§1) Two S. aureus strains were used: a susceptible strain 209P and a clinical isolate strain 129B (resistant to antibiotics: benzylpenicillin, clindamycin, erythromycin, oxacillin, sulfamethoxazole, and vancomycin). Two MRSA strains were included: a susceptible strain ATCC 43300 (resistant to antibiotics: methicillin, oxacillin (beta-lactam antibiotics), ampicillin (https://www.atcc.org/products/43300 (accessed on 11 November 2023)) and a clinical isolate strain SA 180 (resistant to antibiotics: benzylpenicillin and oxacillin (beta-lactam antibiotics), ciprofloxacin, clindamycin, erythromycin, levomycetin, sulfamethoxazole, and vancomycin). One B. cereus was used: a susceptible strain, IP 5832. Two P. aeruginosa strains were included: a susceptible strain, ATCC 28753, and a resistant strain, 2943. Two E. coli strains were used: a susceptible strain, K12, and a susceptible strain, MG1655.
(§2) Determination of the growth for the bacteria S. aureus strain 209P, MRSA strain ATCC 43300, B. cereus strain IP 5832, P. aeruginosa strain ATCC 28753, and E. coli strain K12 was performed using Mueller–Hinton Broth (MHB) (Sigma-Aldrich, St. Louis, MO, USA). Bacteria of S. aureus (strain 129B) and MRSA (strain SA 180-F) were grown on the brain-heart infusion (BHI) medium, and bacteria of P. aeruginosa (strain 2943) and E. coli (strain MG1655) were grown on the LB medium. The preparation and co-incubation of peptides with bacteria were carried out as described previously. The samples were grown at 37 °C.

[2] = tested on: MRSA (ATCC 43300 strain); test: Antibacterial activity in liquid medium; format: cell-based, Methicillin-resistant Staphylococcus aureus; settings: for Peptide Activity in Liquid Medium after 15 h of Incubation (Gentamicin as Positive Control): ATCC 43300 strain, Mueller–Hinton broth, 37 °C, 2% DMSO
Description: as §1, §2

[3] = tested on: P. aeruginosa (ATCC 28753 strain); test: Antibacterial activity in liquid medium; format: cell-based, Pseudomonas aeruginosa; settings: for Peptide Activity in Liquid Medium after 15 h of Incubation (Gentamicin as Positive Control): ATCC 28753, Mueller–Hinton broth, 37 °C, 2% DMSO
Description: as §1, §2

[4] = tested on: E. coli (K12 strain); test: Antibacterial activity in liquid medium; format: cell-based, Escherichia coli; settings: for Peptide Activity in Liquid Medium after 15 h of Incubation (Gentamicin as Positive Control): K12 strain, Mueller–Hinton broth, 37 °C, 2% DMSO
Description: as §1, §2

[5] = tested on: E. coli (MG1655 strain); test: Antibacterial activity in liquid medium; format: cell-based, Escherichia coli; settings: LB medium, 37 °C
Description: as §1, §2

[6] = tested on: B. cereus (IP 5832 strain); test: Antibacterial activity in liquid medium; format: cell-based, Bacillus cereus; settings: 15 h incubation; tested 0.75–12 µM; gentamicin 200 µM; Figures 3, 4
Description: as §1, §2

[7] = tested on: S. aureus (129B strain); test: Antibacterial activity in liquid medium, clinical isolate; format: cell-based, Staphylococcus aureus; settings: BHI medium, 37 °C
Description: as §1, §2

[8] = tested on: MRSA (SA 180-F strain); test: as above; format: cell-based, Methicillin-resistant Staphylococcus aureus; settings: BHI medium, 37 °C
Description: as §1, §2

[9] = tested on: P. aeruginosa (2943 strain); test: Antibacterial activity in liquid medium, resistant strain; format: cell-based, Pseudomonas aeruginosa; settings: LB medium, 37 °C
Description: as §1, §2

[10] = 15 h incubation, tested 0.75–12 µM, gentamicin 200 µM, Figures 3, 4

In the case of “RKKRRQRRRGGGGITDFGIFIGLGGGGSRQIKIWFQNRRMKWKK [R44K^P, CPP1 + amyloidogenic fragment of S1 from P. aeruginosa + CPP2, dihybrid peptide, 44 a.a]”, the “Peptide Activity in Liquid Medium after 15 h of Incubation (Gentamicin as Positive Control)” value [1] is reported as 12 µM, the “Concentrations at which the peptide showed an antimicrobial effect (comparable to gentamicin)” value (“Concentrations” below) [1, 10] is reported as 12 µM and the “Concentrations” value [2, 10] is reported as 12 µM. For the same sequence, the “Peptide Activity in Liquid Medium after 15 h of Incubation (Gentamicin as Positive Control)” value [2] was 12 µM, the “Concentrations” value [3, 10] was 6 to 12 µM and the “Peptide Activity in Liquid Medium after 15 h of Incubation (Gentamicin as Positive Control)” value [3] was 6 µM. The “Peptide Activity in Liquid Medium after 15 h of Incubation (Gentamicin as Positive Control)” value [4] was >12 µM, K12 strain, the “Peptide Activity in Liquid Medium after 24 h of Incubation (Meropenem as a Positive Control)” value [5] was >1930 µM, MG1655 strain and the “Concentrations” value [6] was 3 to 12 µM. For the same sequence, the “Peptide Activity in Liquid Medium after 24 h of Incubation (Meropenem as a Positive Control)” value [7] was >1930 µM, 129B strain, the “Peptide Activity in Liquid Medium after 24 h of Incubation (Meropenem as a Positive Control)” value [8] was >1930 µM, SA 180-F strain and the “Peptide Activity in Liquid Medium after 24 h of Incubation (Meropenem as a Positive Control)” value [9] was ≥1930 µM, 2943 strain.
For “VTDFGVFVEIGGGGSRQIKIWFQNRRMKWKK [V31K^T]”, the “Peptide Activity in Liquid Medium after 15 h of Incubation (Gentamicin as Positive Control)” value [1] was >12 µM, 209P strain, the “Peptide Activity in Liquid Medium after 15 h of Incubation (Gentamicin as Positive Control)” value [2] was >12 µM, ATCC 43300 strain and the “Peptide Activity in Liquid Medium after 15 h of Incubation (Gentamicin as Positive Control)” value [3] was >12 µM, ATCC 28753. The “Concentrations” value [4, 10] was “no significant antimicrobial effects”, the “Peptide Activity in Liquid Medium after 15 h of Incubation (Gentamicin as Positive Control)” value [4] was >12 µM, K12 strain and the “Peptide Activity in Liquid Medium after 24 h of Incubation (Meropenem as a Positive Control)” value [5] was >2730 µM, MG1655 strain. For the same sequence, the “Peptide Activity in Liquid Medium after 24 h of Incubation (Meropenem as a Positive Control)” value [7] was >2730 µM, 129B strain, the “Peptide Activity in Liquid Medium after 24 h of Incubation (Meropenem as a Positive Control)” value [8] was >2730 µM, SA 180-F strain and the “Peptide Activity in Liquid Medium after 24 h of Incubation (Meropenem as a Positive Control)” value [9] was >2730 µM, 2943 strain.
